Reference: ChEMBL document CHEMBL1221220, “Transport and signaling via the amino acid binding site of the yeast Gap1 amino acid transceptor” (Nat Chem Biol, 2009)
Positions count from the first letter of the chain named. Calls of active or inactive are those of the source. The rule behind the calls is not given here.

Experiments:
[1] = test system: T1, General amino-acid permease GAP1 (Saccharomyces cerevisiae), P19145 [N391C]; assay: Activation of yeast Gap1 N391C mutant-mediated amino acid uptake at 10 mM
T1 sequence (whole entry): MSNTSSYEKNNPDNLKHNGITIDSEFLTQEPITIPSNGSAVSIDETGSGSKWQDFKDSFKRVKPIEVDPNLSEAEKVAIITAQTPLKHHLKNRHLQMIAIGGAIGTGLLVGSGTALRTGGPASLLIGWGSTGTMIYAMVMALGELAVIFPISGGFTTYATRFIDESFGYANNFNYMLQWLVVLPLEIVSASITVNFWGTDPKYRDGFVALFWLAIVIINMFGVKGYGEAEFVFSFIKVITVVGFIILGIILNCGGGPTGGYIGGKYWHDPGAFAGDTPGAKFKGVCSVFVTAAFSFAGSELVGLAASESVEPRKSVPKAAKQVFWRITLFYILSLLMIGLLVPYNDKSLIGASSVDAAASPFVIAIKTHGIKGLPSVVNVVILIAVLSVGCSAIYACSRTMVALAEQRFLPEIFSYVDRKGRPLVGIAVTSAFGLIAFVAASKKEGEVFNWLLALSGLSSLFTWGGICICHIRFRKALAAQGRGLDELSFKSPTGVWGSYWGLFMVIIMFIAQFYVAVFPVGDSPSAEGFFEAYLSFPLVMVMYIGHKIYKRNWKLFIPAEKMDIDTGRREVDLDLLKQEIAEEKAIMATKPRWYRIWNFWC

[2] = test system: General amino-acid permease GAP1 (Saccharomyces cerevisiae), P19145 [S392C]; assay: Inhibition of yeast Gap1 S392C mutant-mediated trehalose activation at 10 mM
[3] = test system: T2, General amino-acid permease GAP1 (Saccharomyces cerevisiae), P19145 [V381C]; assay: Induction of yeast Gap1 V381C mutant-mediated trehalose activation at 2 mM in presence of 10 mM MTSEA treated before compound addition
T2 sequence (whole entry): T1 sequence (whole entry) with V381C, C391N

[4] = test system: T1, General amino-acid permease GAP1 (Saccharomyces cerevisiae), P19145 [N391C]; assay: Induction of yeast Gap1 N391C mutant-mediated trehalose activation at 2 mM in presence of 10 mM MTSEA treated before compound addition
[5] = test system: T3, General amino-acid permease GAP1 (Saccharomyces cerevisiae), P19145 [A405C]; assay: Induction of yeast Gap1 A405C mutant-mediated trehalose activation at 10 mM
T3 sequence (whole entry): T1 sequence (whole entry) with C391N, A405C

[6] = test system: T4, General amino-acid permease GAP1 (Saccharomyces cerevisiae), P19145 [A393C]; assay: Activation of yeast Gap1 A393C mutant-mediated amino acid uptake at 10 mM
T4 sequence (whole entry): T1 sequence (whole entry) with C391N, A393C

General amino-acid permease GAP1 (Saccharomyces cerevisiae), P19145 [S392C], sequence (P19145 whole entry S392C): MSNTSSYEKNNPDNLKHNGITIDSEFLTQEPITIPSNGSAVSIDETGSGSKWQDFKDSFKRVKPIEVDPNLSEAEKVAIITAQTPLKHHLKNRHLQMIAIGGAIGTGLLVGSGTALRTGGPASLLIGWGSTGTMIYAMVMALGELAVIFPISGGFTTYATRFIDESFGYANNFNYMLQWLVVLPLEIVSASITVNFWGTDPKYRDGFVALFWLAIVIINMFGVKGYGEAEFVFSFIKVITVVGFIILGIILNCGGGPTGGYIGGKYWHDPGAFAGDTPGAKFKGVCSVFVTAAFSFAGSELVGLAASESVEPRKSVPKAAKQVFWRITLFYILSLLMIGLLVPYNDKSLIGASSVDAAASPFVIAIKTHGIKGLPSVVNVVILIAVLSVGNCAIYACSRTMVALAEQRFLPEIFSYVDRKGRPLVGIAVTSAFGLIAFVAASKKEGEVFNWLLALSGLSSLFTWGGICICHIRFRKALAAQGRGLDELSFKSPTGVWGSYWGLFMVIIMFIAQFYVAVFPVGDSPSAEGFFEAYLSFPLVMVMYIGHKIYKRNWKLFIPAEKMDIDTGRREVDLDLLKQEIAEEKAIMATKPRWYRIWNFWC

- Activity [1]: inactive
- inhibition [2]: Active
- inhibition [3]: Active
- inhibition [4]: Active
- Activity [5]: inactive
- Activity [6]: inactive
Structure (SMILES): NC(=O)NCCC[C@H](N)C(=O)O
